Assay results: US20020177575A1, “Identification of farnesyl-protein transferase as a target for systemic lupus erythematosus therapies” (priority 2001, published 2002)

What was measured:
B6.Sle1(a+b) mice = assay: Suppression of anti-nuclear autoantibody (ANA) production in B6.Sle1(a+b) mice; anti-histone-DNA ANA in sera by ELISA; type: in vivo, mouse; conditions: daily intraperitoneal injection, 75 mg/kg body weight for 4 weeks, sera before, during and after treatment
Procedure: T0 represents the OD value for measuring the titer of anti-Histone/DNA antibodies before treatment. T represents the OD value for measuring the titer of anti-Histone/DNA antibodies at a time point during or after treatment. Each point represents Mean±SE. Mice in control group were given vehicle (Tricaprylin) only.
To study whether POH can inhibit anti-nuclear autoantibody (ANA) production, the inventors treated B6.Sle1(a+b) mice by daily intraperitoneal injection of POH at a dose of 75 mg/kg body weight for 4 weeks. Sera were collected before, during, and after treatment. Levels of anti-histone-DNA ANA were determined by ELISA.

[1] = test system: ras protein farnesylation; conditions: has been shown (prior knowledge); cited from earlier work

For C=C(C)[C@@H]1CC=C(CO)CC1 [POH, Perillyl alcohol], the “Sle1-mediated anti-histone-DNA ANA production” value (B6.Sle1(a+b) mice; FIG. 3) is listed as “can be suppressed”, the “Sle1-mediated anti-histone-DNA ANA production” value (B6.Sle1(a+b) mice; FIG. 3, listed as perillyl alcohol (POH)) is listed as “Inhibitory effect” and the ras protein farnesylation [1] is listed as “has been shown to inhibit ras protein farnesylation”.
